Experiment [1] is described as follows: inhibition of WNV in infected cells – cell-based, EC_2, dose response (AID 588372). The note with it: West Nile virus infected cells, antiviral inhibition.
Experiment [2] has as its system West Nile virus infected cells, antiviral inhibition. The experiment is described as above.

The text below walks through data of PubChem BioAssay AID588372 (Southern Research Specialized Biocontainment Screening …, 2011).

Several values for one entry are separate records, joined by “and”; a condition that tells them apart may be missing. Identical values can stand only once. Records with an inconclusive call do not appear. Activity calls are given as the source filed them. How the calls were made is not given here.

By inhibition is commonly meant the relative decrease from the control value, in per cent. As usually defined, the IC50 is the point on the concentration scale where inhibition reaches its midpoint.

On to `O=C(CSc1nc2ccccc2c(=O)n1-c1cc(Cl)cc(Cl)c1)Nc1cccc2c1CCC2`, for which the inhibition in experiment [1] (at 50 µM (top of the series)) was 1.26% (inactive).
With `O=C(COc1nc2ccccc2c(=O)n1-c1ccccc1)Nc1ccc2c(c1)CCC2`, the inhibition in experiment [1] (at 100 µM (top of the series)) is 5.92% (inactive).
For `O=C(CSc1nc2ccccc2c(=O)n1-c1ccc(Cl)c(Cl)c1)NC1CCCc2ccccc21` (configuration not stated), the inhibition in experiment [1] (at 50 µM (top of the series)) was 1.77% (inactive).
Take `O=C(CSc1nc2ccccc2c(=O)n1-c1ccc(F)c(Cl)c1)Nc1ccc2c(c1)OCO2`: the inhibition in experiment [1] (at 100 µM (top of the series)) was -0.94% (inactive).
For `O=C(CSc1nc2ccccc2c(=O)n1-c1cc(Cl)cc(Cl)c1)Nc1ccc2c(c1)OCO2`, in experiment [1] (at 50 µM (top of the series)), the inhibition is -2.43% (inactive).
With `O=C(CSc1nc2ccccc2c(=O)n1-c1ccc(F)c(Cl)c1)Nc1cccc2c1CCC2`, the inhibition in experiment [1] (at 100 µM (top of the series)) is -0.11% (inactive).
As for `Cc1cnc(NC(=O)CSc2nc3ccccc3c(=O)n2-c2ccc(Cl)c(Cl)c2)s1`, the inhibition in experiment [1] (at 100 µM (top of the series)) is -0.85% (inactive).
Consider `O=C(CCCCSc1nc2ccccc2c(=O)n1-c1cc(Cl)cc(Cl)c1)Nc1ccc2c(c1)CCC2`, for which the inhibition in experiment [1] (at 100 µM (top of the series)) was 0.66% (inactive).
Regarding `O=C(CSc1nc2ccccc2c(=O)n1-c1ccc(Cl)c(Cl)c1)Nc1cccc(-c2ccccc2)c1`, in experiment [1] (at 100 µM (top of the series)), the inhibition is -1.24% (inactive).
With `O=C(CSc1nc2ccccc2c(=O)n1-c1ccc(F)c(Cl)c1)NC1CCc2ccccc21` (configuration not stated), the inhibition in experiment [1] (at 100 µM (top of the series)) is 1.01% (inactive).
On to `O=C(CSc1nc2ccccc2c(=O)n1-c1ccc(Cl)c(Cl)c1)NC1Cc2ccccc2C1`, for which the inhibition in experiment [1] (at 50 µM (top of the series)) is -0.66% (inactive).
`O=C(CSc1nc2ccccc2c(=O)n1-c1cc(F)c(F)c(F)c1)Nc1nccs1`: in experiment [1] (at 100 µM (top of the series)), the inhibition was 6.14% (inactive).
For the compound `O=C(CSc1nc2ccccc2c(=O)n1-c1cc(F)c(F)c(F)c1)NC1CCCc2ccccc21` (configuration not stated), the inhibition in experiment [1] (at 50 µM (top of the series)) is -0.6% (inactive).
In the case of `O=C(CCCCSc1nc2ccccc2c(=O)n1-c1ccc(F)c(Cl)c1)Nc1ccc2c(c1)CCC2`, the inhibition in experiment [1] (at 100 µM (top of the series)) was 0.07% (inactive).
For the compound `O=C(CSc1nc2ccccc2c(=O)n1-c1ccccc1)Nc1ccc2c(c1)CCC2`, the IC50 in experiment [2] is 6.51 µM and 33.3 µM.
On to `O=C(CSc1nc2ccccc2c(=O)n1-c1ccc(F)c(Cl)c1)Nc1cccc2ccccc12`, for which, in experiment [1] (at 100 µM (top of the series)), the inhibition is -0.86% (inactive).
On the same count and under the same terms, as for `O=C(CCCCSc1nc2ccccc2c(=O)n1-c1ccc(Cl)c(Cl)c1)Nc1ccc2c(c1)CCC2`, the figure is 3.07% (inactive).
Take `O=C(CSc1nc2ccccc2c(=O)n1-c1ccc(Cl)c(Cl)c1)Nc1ncc([N+](=O)[O-])s1`: the inhibition in experiment [1] (at 100 µM (top of the series)) was 0.32% (inactive).
On the same count and under the same terms, as for `O=C(CSc1nc2ccccc2c(=O)n1-c1ccc(F)c(F)c1)Nc1cccc2c1CCC2`, the figure is 0% (inactive).
Consider `O=C(CSc1nc2ccccc2c(=O)n1-c1ccc(F)c(Cl)c1)NC1Cc2ccccc2C1`, for which the inhibition in experiment [1] (at 100 µM (top of the series)) is -1.39% (inactive).
In the case of `O=C(CSc1nc2ccccc2c(=O)n1-c1ccc(F)c(Cl)c1)Nc1nccs1`, the inhibition in experiment [1] (at 100 µM (top of the series)) was 7.09% (inactive).
With `O=C(CSc1nc2ccccc2c(=O)n1-c1ccc(F)c(F)c1)NC1CCCc2ccccc21` (configuration not stated), the inhibition in experiment [1] (at 100 µM (top of the series)) is -0.29% (inactive).
On to `O=C(CCCSc1nc2ccccc2c(=O)n1-c1ccc(Cl)c(Cl)c1)Nc1ccc2c(c1)CCC2`, for which the inhibition in experiment [1] (at 100 µM (top of the series)) was -0.7% (inactive).
`O=C(CSc1nc2ccccc2c(=O)n1-c1cc(F)c(F)c(F)c1)Nc1ccc2c(c1)OCO2`: in experiment [1] (at 100 µM (top of the series)), the inhibition was 3.29% (inactive).
Take `O=C(CSc1nc2ccccc2c(=O)n1-c1ccc(F)c(F)c1)Nc1ccc2c(c1)OCO2`: the inhibition in experiment [1] (at 100 µM (top of the series)) is -1.66% (inactive).
As for `O=C(CSc1nc2ccccc2c(=O)n1-c1ccc(Cl)c(Cl)c1)N1CCCCCC1`, the inhibition in experiment [1] (at 100 µM (top of the series)) is 1.13% (inactive).
On to `O=C(CSc1nc2ccccc2c(=O)n1-c1ccc(F)c(Cl)c1)Nc1ccc2c(c1)CCC2`, for which the IC50 in experiment [2] is 9.05 µM.
Turning to `O=C(CSc1nc2ccccc2c(=O)n1-c1cc(F)c(F)c(F)c1)Nc1ccc2c(c1)CCC2`, the IC50 in experiment [2] is 5.27 µM.
For the compound `O=C(CSc1nc2ccccc2c(=O)n1-c1cc(F)c(F)c(F)c1)Nc1cccc2c1CCC2`, in experiment [1] (at 50 µM (top of the series)), the inhibition is 5.49% (inactive).
Take `O=C(CSc1nc2ccccc2c(=O)n1-c1ccc(Cl)c(Cl)c1)NC1CCc2ccccc21` (configuration not stated): the inhibition in experiment [1] (at 50 µM (top of the series)) was 5.24% (inactive).
As to `O=C(CCSc1nc2ccccc2c(=O)n1-c1cc(Cl)cc(Cl)c1)Nc1ccc2c(c1)CCC2`, the inhibition in experiment [1] (at 100 µM (top of the series)) is 1.02% (inactive).
Still for that read-out and setting: as for `O=C(CSc1nc2ccccc2c(=O)n1-c1ccc(F)c(Cl)c1)NC1CCCc2ccccc21` (configuration not stated), the figure is -0.04% (inactive); as for `O=C(CSc1nc2ccccc2c(=O)n1-c1ccc(Cl)c(Cl)c1)Nc1ccc2scnc2c1`, 0.04% (inactive).
With `O=C(CSc1nc2ccccc2c(=O)n1-c1ccc(F)c(F)c1)Nc1nccs1`, the inhibition in experiment [1] (at 50 µM (top of the series)) is 0% (inactive).
`Cc1csc(NC(=O)CSc2nc3ccccc3c(=O)n2-c2ccc(Cl)c(Cl)c2)n1`: in experiment [1] (at 100 µM (top of the series)), the inhibition was -0.04% (inactive).
On the same count and under the same terms, as for `O=C(CCSc1nc2ccccc2c(=O)n1-c1ccc(F)c(F)c1)Nc1ccc2c(c1)CCC2`, the figure is -1.31% (inactive); as for `O=C(CSc1nc2ccccc2c(=O)n1-c1ccc(F)c(F)c1)Nc1cccc2ccccc12`, -1.02% (inactive); as for `O=C(CCCCSc1nc2ccccc2c(=O)n1-c1cc(F)c(F)c(F)c1)Nc1ccc2c(c1)CCC2`, 11.5% (inactive).
`O=C(CCSc1nc2ccccc2c(=O)n1-c1ccc(F)c(Cl)c1)Nc1ccc2c(c1)CCC2`: the inhibition in experiment [1] (at 100 µM (top of the series)) is -1.01% (inactive).
Still for that read-out and setting: as for `O=C(CSc1nc2ccccc2c(=O)n1-c1cc(F)c(F)c(F)c1)Nc1cccc2ccccc12`, the figure is -1.52% (inactive).
On to `O=C(CSc1nc2ccccc2c(=O)n1-c1ccc(Cl)c(Cl)c1)Nc1nc2ccc([N+](=O)[O-])cc2s1`, for which the inhibition in experiment [1] (at 50 µM (top of the series)) was -1.43% (inactive).
Regarding `O=C(CSc1nc2ccccc2c(=O)n1-c1ccc(Cl)c(Cl)c1)Nc1nc2cc(Cl)ccc2o1`, the inhibition in experiment [1] (at 100 µM (top of the series)) was 6.36% (inactive).
In the case of `Cc1nc2cc(NC(=O)CSc3nc4ccccc4c(=O)n3-c3ccc(Cl)c(Cl)c3)ccc2s1`, in experiment [1] (at 50 µM (top of the series)), the inhibition was 0.29% (inactive).
Regarding `O=C(CSc1nc2ccccc2c(=O)n1-c1cc(Cl)cc(Cl)c1)Nc1ccc2c(c1)CCC2`, the IC50 in experiment [2] is 2.1 µM.
In the case of `O=C(CCCCSc1nc2ccccc2c(=O)n1-c1ccc(F)c(F)c1)Nc1ccc2c(c1)CCC2`, in experiment [1] (at 100 µM (top of the series)), the inhibition is 0.53% (inactive).
Turning to `Cn1c(NC(=O)CSc2nc3ccccc3c(=O)n2-c2ccccc2)nc2ccccc21`, the inhibition in experiment [1] (at 25 µM (top of the series)) was -2.29% (inactive).
As for `Cn1c(NC(=O)CSc2nc3ccccc3c(=O)n2-c2ccc(Cl)c(Cl)c2)nc2ccccc21`, the inhibition in experiment [1] (at 50 µM (top of the series)) is -1.28% (inactive).
For `O=C(CSc1nc2ccccc2c(=O)n1-c1ccc(F)c(F)c1)Nc1ccc2c(c1)CCC2`, the IC50 in experiment [2] is 5.72 µM.
For the compound `O=C(CSc1nc2ccccc2c(=O)n1-c1ccc(Cl)c(Cl)c1)Nc1nc(-c2ccccc2)cs1`, the inhibition in experiment [1] (at 100 µM (top of the series)) is 0.46% (inactive).
On to `O=C(CSc1nc2ccccc2c(=O)n1-c1ccc(F)c(F)c1)NC1Cc2ccccc2C1`, for which the inhibition in experiment [1] (at 100 µM (top of the series)) was -0.73% (inactive).
In the case of `O=C(CSc1nc2ccccc2c(=O)n1-c1cc(F)c(F)c(F)c1)NC1Cc2ccccc2C1`, the inhibition in experiment [1] (at 50 µM (top of the series)) was 0.07% (inactive).
`O=C(CSc1nc2ccccc2c(=O)n1-c1cc(Cl)cc(Cl)c1)NC1CCCc2ccccc21` (configuration not stated): in experiment [1] (at 50 µM (top of the series)), the inhibition was 1.62% (inactive).
